Columns and labels:
[1] = tested on: Human hepatoma cell lines HepG2 and Hep3B; assay: Flow cytometry of CD133+ cell proportion; assay type: cell-based; conditions: data not shown
Method: 1. […] After 24 hrs, the medium was replaced with fresh DMEM culture solution containing 10% FBS. After three days, the cells were collected, and the CD133/1-PE (Miltenyi Biotec, Auburn, Calif.) was used as primary antibody for incubation, and the proportion of CD133+ cells was determined by flow cytometry.

[2] = tested on: Human hepatoma cell lines HepG2 and Hep3B; assay: In vitro effects of control substances on hepatoma cell lines (RT-PCR, immunohistochemistry, morphology); assay type: cell-based; conditions: for regulation effect on in vitro differentiation of hepatocellular carcinoma cell lines: background statement of inventors' study; for apoptosis / proliferation: HepG2 and Hep3B
Method: Human hepatoma cell lines HepG2 and Hep3B were inoculated onto the six-well plate with a concentration of 5×10^5 cells/dish, and the all-trans retinoic acid, somatostatin, tumor necrosis factor, and arsenic trioxide were added respectively. The total RNA was extracted by Trizol kit, and reverse transcriptase reaction was carried out for 2 hrs. 1 μl diluted reverse transcription product was taken and used as template for PCR amplification to detect the mRNA expression of liver cell-related function genes. The proliferation and apoptosis related proteins such as Cyclin, Bax, Bcl-2 and so on was measured by immunohistochemistry.

solid tumors = assay: In vivo study of control substances on solid tumor differentiation; conditions: background statement of inventors' study

CC1=C(/C=C/C(C)=C/C=C/C(C)=C/C(=O)O)C(C)(C)CCC1 [all-trans retinoic acid]
differentiation induction effect on tumor stem cells [1]: no significant differentiation induction effect
regulation effect on in vitro differentiation of hepatocellular carcinoma cell lines [2]: no drugs or proteins with clear differentiation therapy effects
in vivo induction of differentiation of solid tumors (solid tumors): can not effectively induce the differentiation of solid tumors

arsenic trioxide
differentiation induction effect on tumor stem cells [1]: no significant differentiation induction effect
apoptosis [2]: significantly increased
proliferation [2]: reduced
regulation effect on in vitro differentiation of hepatocellular carcinoma cell lines [2]: no drugs or proteins with clear differentiation therapy effects
in vivo induction of differentiation of solid tumors (solid tumors): can not effectively induce the differentiation of solid tumors

tumor necrosis factor
apoptosis [2]: significantly increased
proliferation [2]: reduced
regulation effect on in vitro differentiation of hepatocellular carcinoma cell lines [2]: no drugs or proteins with clear differentiation therapy effects
in vivo induction of differentiation of solid tumors (solid tumors): can not effectively induce the differentiation of solid tumors
